Data from ChEMBL document CHEMBL5634110, “Applications of oxetanes in drug discovery and medicinal chemistry” (Eur J Med Chem, 2023).
Converted amounts (≈) assume the structure as drawn. Blank lines part the entries; values can stand above or below the molecule they belong to.

Columns and labels:
[1] = target: Collagenase 3 (Homo sapiens, UniProt P45452); experiment: Binding affinity to full length human recombinant MMP-13 using Mca-PLGL-Dpa-AR-NH2 as fluorogenic peptide substrate assessed as inhibition constant
[2] = Kinetic solubility of compound in PBS buffer at 500 uM incubated for 18 hrs by HPLC analysis; assay type: physicochemical; conditions: read-out: Kinetic_solubility
[3] = Metabolic stability in human liver microsomes assessed as half life at 1 uM incubated for 60 mins by LC-MS/MS analysis; assay type: ADME, Microsome
[4] = Metabolic stability in rat liver microsomes assessed as half life at 1 uM incubated for 60 mins by LC-MS/MS analysis; assay type: ADME, Microsome
[5] = Metabolic stability in mouse liver microsomes assessed as half life at 1 uM incubated for 60 mins by LC-MS/MS analysis; assay type: ADME, Microsome
[6] = test system: Z-138; experiment: Growth inhibition of human Z138 cells; assay type: functional
[7] = Inhibition of GST fused Bcl-xL (unknown origin) incubated for 5 min by TR-FRET assay; design: species or system Homo sapiens
[8] = target: Apoptosis regulator Bcl-2 (Homo sapiens, UniProt P10415); experiment: Inhibition of Bcl-2 (unknown origin) by fluorescence polarization assay
Apoptosis regulator Bcl-2, sequence (P10415 whole entry): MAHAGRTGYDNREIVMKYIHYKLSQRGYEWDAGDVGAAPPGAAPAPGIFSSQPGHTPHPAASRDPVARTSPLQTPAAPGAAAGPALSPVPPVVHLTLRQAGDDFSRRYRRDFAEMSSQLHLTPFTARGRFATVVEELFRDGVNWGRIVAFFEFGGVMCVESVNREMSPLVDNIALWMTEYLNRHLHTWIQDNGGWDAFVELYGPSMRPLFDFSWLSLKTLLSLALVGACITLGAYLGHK

[9] = target: Hepatitis C virus NS5B RNA-dependent RNA polymerase (Hepatitis C virus, UniProt Q8JXU8); experiment: Inhibition of Hepatitis C virus NS5B polymerase; design: species or system Hepacivirus hominis
Hepatitis C virus NS5B RNA-dependent RNA polymerase, sequence (Q8JXU8 whole entry): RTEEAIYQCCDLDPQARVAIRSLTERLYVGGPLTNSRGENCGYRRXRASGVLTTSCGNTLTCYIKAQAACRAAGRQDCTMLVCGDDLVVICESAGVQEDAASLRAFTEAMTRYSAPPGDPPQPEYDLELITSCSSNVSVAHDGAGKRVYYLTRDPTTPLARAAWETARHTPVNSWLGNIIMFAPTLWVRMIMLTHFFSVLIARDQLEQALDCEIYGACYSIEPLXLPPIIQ

[10] = Apparent permeability of compound in phosphate buffer by PAMPA assay; assay type: ADME
[11] = Intrinsic clearance in human liver microsomes; assay type: ADME, Microsome; conditions: read-out: CLH
[12] = Oral bioavailability in rat at 2 mg/kg; assay type: ADME, organism-based; conditions: in vivo
[13] = Oral bioavailability in monkey at 5 mg/kg; assay type: ADME, organism-based, Macaca mulatta; conditions: rhesus monkey, in vivo
[14] = Solubility of compound in PBS at pH 7.4; assay type: physicochemical
[15] = Half life in iv dosed rat; assay type: ADME, organism-based; conditions: in vivo
[16] = AUC in iv dosed rat; assay type: ADME, organism-based; conditions: in vivo
[17] = Oral bioavailability in rat; assay type: ADME, organism-based; conditions: in vivo
[18] = Intrinsic clearance in rat liver microsomes; assay type: ADME, Microsome
[19] = target: T1, Developmentally-regulated GTP-binding protein 1 (Homo sapiens, UniProt Q9Y295); experiment: Inhibition of DRG1 (unknown origin)
T1 sequence (Q9Y295 whole entry): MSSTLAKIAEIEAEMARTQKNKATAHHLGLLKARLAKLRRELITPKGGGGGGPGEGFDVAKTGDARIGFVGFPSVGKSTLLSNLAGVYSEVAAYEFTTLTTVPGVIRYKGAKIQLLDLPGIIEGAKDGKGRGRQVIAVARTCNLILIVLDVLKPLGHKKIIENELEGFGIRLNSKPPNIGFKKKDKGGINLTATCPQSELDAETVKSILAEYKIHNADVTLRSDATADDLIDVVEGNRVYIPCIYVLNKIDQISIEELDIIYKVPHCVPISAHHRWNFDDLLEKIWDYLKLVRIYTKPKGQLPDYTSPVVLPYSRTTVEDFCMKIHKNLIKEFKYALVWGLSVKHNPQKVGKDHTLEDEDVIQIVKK

[20] = AUC (0 to 24 hrs) in rat at 5 mg/kg, po; assay type: ADME, organism-based; conditions: in vivo
[21] = Tmax in rat at 5 mg/kg, po; assay type: ADME, organism-based; conditions: in vivo
[22] = Solubility of compound at pH 6.8; assay type: physicochemical; conditions: buffer
[23] = Intrinsic clearance in mouse liver microsomes; assay type: ADME, Microsome; conditions: read-out: CLH
[24] = test system: Human orthopneumovirus; experiment: Antiviral activity against RSV type B assessed as viral growth inhibition; assay type: functional, organism-based; conditions: human respiratory syncytial virus

Ki [1]: 10.3 nM
solubility kinetic at 18 h, 500 µM [2]: 32.7 µM (≈ 17.1 µg/mL)
half-life at 1 µM [3]: 1.1 h
half-life at 1 µM [4]: 1.67 h
half-life at 1 µM [5]: 1.58 h
Compound: CC(C)[C@H](NC(=O)c1ccc(-c2ccc(CNc3nc4c(c(=O)[nH]3)CCC4)c(F)c2)o1)C(=O)NC1COC1
GI50 [6]: 20 nM

IC50 [7]: 105 nM
IC50 [8]: 17.3 nM
Compound: CC1(C)CCC(c2ccc(Cl)cc2)=C(CN2CCN(c3ccc(C(=O)NS(=O)(=O)c4ccc(OCC5(CN6CC(F)(F)C6)COC5)c(S(=O)(=O)C(F)(F)F)c4)cc3)CC2)C1

IC50 [9]: 10000 nM
Compound: Nc1nc2c(ncn2[C@@H]2O[C@H](COP(=O)(O)OP(=O)(O)OP(=O)(O)O)[C@@H](O)[C@@]23CCO3)c(=O)[nH]1

Papp [10]: 12 ×10⁻⁶ cm/s
Compound: COC(C)(C)C#Cc1cnc2c(c1)[C@]1(COC(N)=N1)c1cc(-c3cccnc3F)ccc1O2

microsomal CLint [11]: 6 µL/min/mg
Compound: COc1cc(C#N)ccc1COc1cccc(N2C=NN(Cc3nc4c(F)cc(C(=O)O)cc4n3C[C@@H]3CCO3)CC2)n1

IC50 [7]: 8.2 nM
Compound: CC1(C)CCC(c2ccc(Cl)cc2)=C(CN2CCN(c3ccc(C(=O)NS(=O)(=O)c4ccc(N[C@H](CCN5CCOCC5)CSc5ccccc5)c(S(=O)(=O)C(F)(F)F)c4)cc3)CC2)C1 [NAVITOCLAX]

Ki [1]: 12.2 nM
solubility kinetic at 18 h, 500 µM [2]: 76.4 µM (≈ 39.9 µg/mL)
half-life at 1 µM [3]: 1.02 h
half-life at 1 µM [4]: 1.03 h
half-life at 1 µM [5]: 1.73 h
Compound: CC(C)[C@H](NC(=O)c1ccc(-c2ccc(CCc3nc4c(c(=O)[nH]3)CCC4)c(F)c2)o1)C(=O)NC1COC1

Papp [10]: 11 ×10⁻⁶ cm/s
bioavailability [12]: 70%
bioavailability [13]: 101%
Compound: CC(C)(O)C#Cc1cnc2c(c1)[C@]1(COC(N)=N1)c1cc(-c3cccnc3F)ccc1O2

solubility [14]: 137 µg/mL (≈ 360 µM)
half-life [15]: 5.5 h
AUC [16]: 469 ng·h/mL
bioavailability [17]: 73.1%
Compound: COC(=O)Nc1nc2cc(C(=O)c3ccc(N(C)C4COC4)cc3)ccc2[nH]1

microsomal CLint [11]: 12 µL/min/mg
CLH [18]: 12 µL/min/mg
Compound: COc1cc(C(F)(F)F)ccc1COc1cccc(N2C=NN(Cc3nc4c(F)cc(C(=O)O)cc4n3C[C@@H]3CCO3)CC2)n1

IC50 [19]: 180 nM
Compound: CC(=O)N1CCC(c2cc(Nc3cc(C#N)ccn3)nc(N3CCC(F)(F)C3)c2)CC1

AUC(0-t) [20]: 49100 ng·h/mL
Tmax [21]: 1 h
Compound: CO[C@H]1C[C@@H](C)C/C(C)=C/[C@@H](C/C=C/C2(O)COC2)C(=O)C[C@H](O)[C@@H](C)[C@@H](/C(C)=C/[C@@H]2CC[C@@H](O)[C@H](OC)C2)OC(=O)[C@@H]2CCCCN2C(=O)C(=O)[C@]2(O)O[C@H]1[C@@H](OC)C[C@H]2C

solubility [22]: 28 µM (≈ 22.5 µg/mL)
microsomal CLint [23]: 306 µL/min/mg
AUC(0-t) [20]: 2490 ng·h/mL
Tmax [21]: 1 h
Compound: C=CC[C@@H]1/C=C(\C)C[C@H](C)C[C@H](OC)[C@H]2O[C@@](O)(C(=O)C(=O)N3CCCC[C@H]3C(=O)O[C@H](/C(C)=C/[C@@H]3CC[C@@H](O)[C@H](OC)C3)[C@H](C)[C@@H](O)CC1=O)[C@H](C)C[C@@H]2OC [TACROLIMUS ANHYDROUS]

Compound: O=C(NC1CC1)c1cc2c(s1)-c1ccccc1N(C(=O)c1ccc(NC(=O)c3cccnc3N3CCC4(CC3)COC4)cc1)CC2
EC50 [24]: > 100000 nM
